The values below come from ChEMBL document CHEMBL1201862, “PubChem BioAssay data set” (2004).

The term AC50 denotes the concentration giving half of the maximal activity seen.

Assay [1] deals with T1, Corticotropin-releasing factor receptor 2/Corticotropin-releasing factor-binding protein (Homo sapiens, UniProt P24387+Q13324).
T1 sequence (Q13324 whole entry): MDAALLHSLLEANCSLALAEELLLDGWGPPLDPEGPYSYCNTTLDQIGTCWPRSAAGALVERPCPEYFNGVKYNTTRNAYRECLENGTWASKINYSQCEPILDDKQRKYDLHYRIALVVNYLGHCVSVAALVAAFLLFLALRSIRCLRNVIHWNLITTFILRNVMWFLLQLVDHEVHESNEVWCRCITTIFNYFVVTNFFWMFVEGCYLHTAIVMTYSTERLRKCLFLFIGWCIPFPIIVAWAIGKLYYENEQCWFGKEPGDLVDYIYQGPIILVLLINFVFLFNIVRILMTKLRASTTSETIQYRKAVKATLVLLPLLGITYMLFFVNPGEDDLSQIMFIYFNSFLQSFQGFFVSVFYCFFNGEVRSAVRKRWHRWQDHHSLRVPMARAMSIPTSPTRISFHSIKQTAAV
T1 sequence (P24387 whole entry): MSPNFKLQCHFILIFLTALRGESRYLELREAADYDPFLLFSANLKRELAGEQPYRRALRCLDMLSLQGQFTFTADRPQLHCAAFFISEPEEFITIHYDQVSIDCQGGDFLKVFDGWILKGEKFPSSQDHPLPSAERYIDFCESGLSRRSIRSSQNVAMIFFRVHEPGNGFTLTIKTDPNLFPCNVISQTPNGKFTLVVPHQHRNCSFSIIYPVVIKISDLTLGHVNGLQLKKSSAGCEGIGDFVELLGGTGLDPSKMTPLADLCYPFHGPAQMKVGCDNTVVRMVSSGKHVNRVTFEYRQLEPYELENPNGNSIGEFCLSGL
The experiment in a line: Dose Response confirmation of uHTS hits for small molecule antagonists of the CRF-binding protein and CRF-R2 receptor complex. It is filed as functional. Particulars: read-out: IC50_Mean.

The target of assay [2] is T1, Corticotropin-releasing factor receptor 2/Corticotropin-releasing factor-binding protein. The experiment in a line: activators of CRF receptor 2 with binding protein – uHTS hits, confirmation (AID 602473). It is filed as functional. Particulars: read-out: EC50_Mean.
The nature of assay [3]: CRF-BP/CRF-R2 complex antagonists, dose response, cell-based, uHTS hits, 384-well (AID 651639). The assay is classed as functional, Homo sapiens. The settings on record: read-out: IC50_Mean.
Assay [4] can be described thus: NIH/3T3 fibroblast cytotoxicity, dose response, cytotoxicity control for T. cruzi growth inhibitor project, cell-based, cherry-pick samples, set 2 (AID 651817). The assay is classed as functional. The settings on record: NIH3T3.
Assay [5] concerns the target T2, Short transient receptor potential channel 4 (Mus musculus, UniProt Q9QUQ5).
T2 sequence (Q9QUQ5 whole entry): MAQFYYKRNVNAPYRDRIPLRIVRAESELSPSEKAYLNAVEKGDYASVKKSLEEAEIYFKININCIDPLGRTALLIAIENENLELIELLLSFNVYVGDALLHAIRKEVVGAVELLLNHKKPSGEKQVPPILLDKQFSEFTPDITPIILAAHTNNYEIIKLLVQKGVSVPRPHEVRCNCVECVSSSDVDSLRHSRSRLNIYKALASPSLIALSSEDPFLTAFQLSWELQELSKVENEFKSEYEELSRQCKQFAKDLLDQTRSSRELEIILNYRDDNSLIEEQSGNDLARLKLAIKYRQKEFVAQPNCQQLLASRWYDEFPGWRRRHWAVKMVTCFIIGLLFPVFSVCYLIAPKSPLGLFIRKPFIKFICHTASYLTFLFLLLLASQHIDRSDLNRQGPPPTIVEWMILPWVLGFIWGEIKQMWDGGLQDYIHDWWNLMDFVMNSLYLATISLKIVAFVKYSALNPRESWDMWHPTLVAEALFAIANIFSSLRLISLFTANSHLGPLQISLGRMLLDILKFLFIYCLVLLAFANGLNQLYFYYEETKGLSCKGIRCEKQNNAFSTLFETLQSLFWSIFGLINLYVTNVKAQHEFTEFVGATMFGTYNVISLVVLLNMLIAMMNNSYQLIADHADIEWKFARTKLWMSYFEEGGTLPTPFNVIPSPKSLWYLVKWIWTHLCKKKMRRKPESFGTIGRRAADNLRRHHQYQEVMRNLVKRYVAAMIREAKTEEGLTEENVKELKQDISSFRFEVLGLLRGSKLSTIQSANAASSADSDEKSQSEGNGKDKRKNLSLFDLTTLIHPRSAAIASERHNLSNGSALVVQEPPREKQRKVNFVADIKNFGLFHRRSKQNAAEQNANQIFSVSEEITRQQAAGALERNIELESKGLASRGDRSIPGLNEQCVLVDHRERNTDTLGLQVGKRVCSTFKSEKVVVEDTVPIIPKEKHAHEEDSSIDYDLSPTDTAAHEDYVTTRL
Kind of assay: mouse TRPC4 channel inhibitors, dose response, cell-based, HEK293 TRPC4/mu-opioid, Fluo-4 calcium (AID 434942).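 Also: potency of inhibitors blocking the TRPC4 calcium response.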 It is filed as functional.

Assay [6] has as its target Dual specificity tyrosine-phosphorylation-regulated kinase 1A (Rattus norvegicus, UniProt Q63470). The assay is classed as biochemical, Homo sapiens.
The target of assay [7] is T3, Low molecular weight phosphotyrosine protein phosphatase (Homo sapiens, UniProt P24666).
T3 sequence (P24666 whole entry): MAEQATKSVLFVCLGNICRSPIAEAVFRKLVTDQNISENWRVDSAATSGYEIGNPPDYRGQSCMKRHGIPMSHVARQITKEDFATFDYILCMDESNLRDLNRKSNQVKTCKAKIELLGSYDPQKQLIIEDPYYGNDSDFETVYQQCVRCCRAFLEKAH
It is filed as functional. Particulars: read-out: IC50_Mean.

The target in assay [8] is T3, Low molecular weight phosphotyrosine protein phosphatase. The assay is classed as functional. Particulars: read-out: IC50_Mean. This is another data set of the same source.
The target in assay [9] is T4, Tyrosine-protein phosphatase non-receptor type 22 (Homo sapiens, UniProt Q9Y2R2).
T4 sequence (Q9Y2R2 whole entry): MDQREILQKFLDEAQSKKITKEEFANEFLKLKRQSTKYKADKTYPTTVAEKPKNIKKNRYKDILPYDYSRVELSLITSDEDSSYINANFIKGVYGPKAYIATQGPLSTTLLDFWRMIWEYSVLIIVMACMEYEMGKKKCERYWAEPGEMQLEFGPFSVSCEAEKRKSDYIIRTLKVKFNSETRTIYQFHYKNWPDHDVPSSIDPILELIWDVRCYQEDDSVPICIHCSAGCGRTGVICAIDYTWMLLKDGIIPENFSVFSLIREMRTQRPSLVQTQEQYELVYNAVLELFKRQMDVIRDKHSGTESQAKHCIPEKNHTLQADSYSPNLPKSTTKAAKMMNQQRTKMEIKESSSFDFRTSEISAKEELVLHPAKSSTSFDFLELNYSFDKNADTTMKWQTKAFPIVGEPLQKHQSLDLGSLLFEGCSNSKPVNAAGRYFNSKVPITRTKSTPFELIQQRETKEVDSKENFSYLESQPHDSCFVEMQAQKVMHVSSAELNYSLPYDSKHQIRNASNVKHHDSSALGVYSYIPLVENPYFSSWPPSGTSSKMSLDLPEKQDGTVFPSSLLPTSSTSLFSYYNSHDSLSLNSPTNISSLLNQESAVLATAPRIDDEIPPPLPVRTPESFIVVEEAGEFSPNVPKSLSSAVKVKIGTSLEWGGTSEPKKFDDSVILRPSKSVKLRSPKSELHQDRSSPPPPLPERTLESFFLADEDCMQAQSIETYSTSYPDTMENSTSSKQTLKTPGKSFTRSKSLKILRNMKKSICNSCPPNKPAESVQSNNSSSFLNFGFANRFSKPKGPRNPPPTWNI
The experiment in a line: LYP phosphatase inhibition for selectivity, dose response, selectivity assay for LMPTP inhibitor project, biochemical, fluorescence, LYP catalytic domain (AID 652006). The assay is classed as functional. Particulars: read-out: IC50_Mean.

Assay [10] deals with T5, Probable nicotinate-nucleotide adenylyltransferase (Staphylococcus aureus (strain N315), UniProt P65502). It is filed as functional, Staphylococcus aureus subsp. aureus N315.
In assay [11] the target is T5, Probable nicotinate-nucleotide adenylyltransferase. The assay is classed as functional, Staphylococcus aureus subsp. aureus N315. Particulars: read-out: IC50_Mean.
In assay [12] the target is T6, Methionyl-tRNA synthetase, putative (Trypanosoma brucei brucei, UniProt Q38C91). The assay is classed as functional, Trypanosoma brucei brucei strain 927/4 GUTat10.1.
Assay [13] is described as follows: Counterscreen for inhibitors of Trypanosoma brucei methionyl tRNA synthetase (MetRS): Luminescence-based cell-based high throughput dose response assay to identify compounds that are cytotoxic to Jurkat human T lymphocyte cells. It is filed as functional. Background: A counterscreen serves to expose hits that act by an unwanted route or on another target.
Assay [14] has as its target T6, Methionyl-tRNA synthetase, putative. It is filed as functional, Trypanosoma brucei brucei strain 927/4 GUTat10.1. The source holds these as a separate data set.
The next assay concerns the target Beta-galactosidase (Escherichia coli, UniProt Q8VNN2). Kind of assay: PubChem AID 485352. It is filed as functional.
Assay [15] concerns the target T7, Type-1 angiotensin II receptor (Homo sapiens, UniProt P30556).
T7 sequence (P30556 whole entry): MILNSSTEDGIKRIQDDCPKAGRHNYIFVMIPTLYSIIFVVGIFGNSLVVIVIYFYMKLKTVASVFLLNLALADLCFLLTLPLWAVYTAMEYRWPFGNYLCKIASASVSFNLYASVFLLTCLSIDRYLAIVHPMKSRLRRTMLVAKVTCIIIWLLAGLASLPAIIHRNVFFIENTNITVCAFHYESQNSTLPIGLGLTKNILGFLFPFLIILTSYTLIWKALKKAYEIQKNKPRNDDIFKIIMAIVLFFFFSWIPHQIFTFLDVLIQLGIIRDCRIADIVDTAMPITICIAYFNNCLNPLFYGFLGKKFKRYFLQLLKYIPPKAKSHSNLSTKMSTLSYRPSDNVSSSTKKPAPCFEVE
Kind of assay: AT1 receptor antagonists, dose response, selectivity assay for APJ receptor antagonist project, cell-based, uHTS hits (AID 463214).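 Also: antagonist potency against angiotensin II stimulated AT1 response.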 The assay is classed as functional.

Assay [16] deals with Long-chain-fatty-acid--AMP ligase FadD28 (Mycobacterium tuberculosis, UniProt P9WQ59). The experiment in a line: Fluorescence polarization aasay to screen for inhibitors that compete for the binding of FadD28 to a bisubstrate Measured in Biochemical System Using Plate Reader - 2147-01_Inhibitor_Dose_CherryPick_Activity. It is filed as functional, Mycobacterium tuberculosis H37Rv.

The source made the active and inactive calls. A value given as a limit tells only on which side of the number the result lay.

T6 sequence (Q38C91 whole entry): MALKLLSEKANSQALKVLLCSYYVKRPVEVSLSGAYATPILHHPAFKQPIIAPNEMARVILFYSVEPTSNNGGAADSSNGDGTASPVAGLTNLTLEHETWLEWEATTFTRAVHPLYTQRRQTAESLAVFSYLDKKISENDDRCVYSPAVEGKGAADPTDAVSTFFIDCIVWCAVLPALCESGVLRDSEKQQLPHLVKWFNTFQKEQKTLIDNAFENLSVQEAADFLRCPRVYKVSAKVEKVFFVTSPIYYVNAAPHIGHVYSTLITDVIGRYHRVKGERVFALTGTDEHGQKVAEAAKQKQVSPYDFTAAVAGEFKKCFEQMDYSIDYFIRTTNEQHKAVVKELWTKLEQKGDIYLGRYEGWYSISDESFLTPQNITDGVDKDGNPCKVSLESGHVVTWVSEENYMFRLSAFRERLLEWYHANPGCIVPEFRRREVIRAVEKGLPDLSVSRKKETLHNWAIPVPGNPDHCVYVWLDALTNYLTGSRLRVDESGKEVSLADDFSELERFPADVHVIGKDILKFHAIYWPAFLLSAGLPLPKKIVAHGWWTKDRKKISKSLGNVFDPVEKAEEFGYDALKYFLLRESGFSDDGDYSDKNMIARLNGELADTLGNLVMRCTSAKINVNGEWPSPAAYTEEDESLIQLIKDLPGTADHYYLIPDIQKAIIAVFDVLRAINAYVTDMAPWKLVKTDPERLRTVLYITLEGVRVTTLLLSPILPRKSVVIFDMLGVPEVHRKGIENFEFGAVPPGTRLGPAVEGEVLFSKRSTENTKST
T5 sequence (P65502 whole entry): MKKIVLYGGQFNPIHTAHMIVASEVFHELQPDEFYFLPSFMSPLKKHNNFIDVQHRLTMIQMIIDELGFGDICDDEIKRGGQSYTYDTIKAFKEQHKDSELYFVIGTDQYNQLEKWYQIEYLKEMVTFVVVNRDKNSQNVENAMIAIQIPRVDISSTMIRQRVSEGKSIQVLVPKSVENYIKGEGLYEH
Sequence of Long-chain-fatty-acid--AMP ligase FadD28 (P9WQ59 whole entry): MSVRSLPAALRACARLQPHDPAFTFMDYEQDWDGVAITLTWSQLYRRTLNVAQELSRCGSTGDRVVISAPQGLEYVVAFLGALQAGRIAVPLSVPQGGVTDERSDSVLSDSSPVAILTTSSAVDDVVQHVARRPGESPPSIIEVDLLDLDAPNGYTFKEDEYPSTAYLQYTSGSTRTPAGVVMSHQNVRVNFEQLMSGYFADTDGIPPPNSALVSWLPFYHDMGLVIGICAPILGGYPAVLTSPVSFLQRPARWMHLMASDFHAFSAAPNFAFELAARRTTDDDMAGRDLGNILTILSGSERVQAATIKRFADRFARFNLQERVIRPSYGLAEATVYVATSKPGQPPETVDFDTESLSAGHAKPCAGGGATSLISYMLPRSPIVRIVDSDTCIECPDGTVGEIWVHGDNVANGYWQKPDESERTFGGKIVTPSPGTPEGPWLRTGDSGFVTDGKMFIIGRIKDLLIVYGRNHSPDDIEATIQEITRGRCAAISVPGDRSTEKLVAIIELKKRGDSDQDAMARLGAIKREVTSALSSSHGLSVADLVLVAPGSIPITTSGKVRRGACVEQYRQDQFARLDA
Sequence of Beta-galactosidase (Q8VNN2 whole entry): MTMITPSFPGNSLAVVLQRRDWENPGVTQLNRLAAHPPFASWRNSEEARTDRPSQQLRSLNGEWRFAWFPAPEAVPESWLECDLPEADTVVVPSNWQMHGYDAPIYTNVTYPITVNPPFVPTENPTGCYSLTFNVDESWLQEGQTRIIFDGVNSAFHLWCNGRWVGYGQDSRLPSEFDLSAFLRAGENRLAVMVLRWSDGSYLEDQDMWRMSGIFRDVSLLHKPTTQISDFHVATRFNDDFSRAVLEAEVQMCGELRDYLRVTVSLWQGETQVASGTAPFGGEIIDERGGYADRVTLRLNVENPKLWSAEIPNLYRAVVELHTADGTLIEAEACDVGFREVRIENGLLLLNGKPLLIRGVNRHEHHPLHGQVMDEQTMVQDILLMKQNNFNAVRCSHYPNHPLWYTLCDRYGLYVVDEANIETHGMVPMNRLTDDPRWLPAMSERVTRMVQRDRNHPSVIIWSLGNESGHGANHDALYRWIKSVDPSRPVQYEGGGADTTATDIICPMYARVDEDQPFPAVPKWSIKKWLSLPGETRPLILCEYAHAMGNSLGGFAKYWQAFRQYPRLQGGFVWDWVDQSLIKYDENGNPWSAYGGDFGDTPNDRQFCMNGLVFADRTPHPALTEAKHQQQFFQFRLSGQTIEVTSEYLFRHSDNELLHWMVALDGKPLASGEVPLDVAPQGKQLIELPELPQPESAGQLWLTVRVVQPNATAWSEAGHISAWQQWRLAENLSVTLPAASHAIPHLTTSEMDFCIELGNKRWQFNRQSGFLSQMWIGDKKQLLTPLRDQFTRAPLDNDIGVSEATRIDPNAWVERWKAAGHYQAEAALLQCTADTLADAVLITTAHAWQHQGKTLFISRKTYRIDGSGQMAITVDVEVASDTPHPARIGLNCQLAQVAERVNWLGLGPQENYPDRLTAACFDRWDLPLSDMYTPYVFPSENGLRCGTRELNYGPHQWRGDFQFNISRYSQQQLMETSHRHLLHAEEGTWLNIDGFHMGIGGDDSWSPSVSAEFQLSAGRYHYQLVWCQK

For the compound `CC(=O)NC(Cc1ccc(C)cc1)C(=O)NC1CCN(c2ncccc2[N+](=O)[O-])CC1` (configuration not stated), the IC50 is 2.09 µM (active) in [1] and 5.07 µM (active) in assay [3]. Moreover, in assay [2], the EC50 is > 53 µM (inactive).

As to `Cc1ccc(S(=O)(=O)N(C)C[C@@H]2Oc3c(NC(=O)c4nc5ccccc5s4)cccc3C(=O)N([C@@H](C)CO)C[C@@H]2C)cc1`, the AC50 in [4] is 39 µM (inactive).

For `Cc1cc(N2CCC(C)CC2)nc2cccc(O)c12`, in [5], the EC50 was 0.335 µM (active). In [6], the AC50 was 14.3 µM (active). For the same compound, the IC50 in assay [7] was 9.87 µM (active); in [8], 13.2 µM (active); in assay [9], 80 µM (inactive).

Take `Nc1[nH]c(C(=O)c2ccccc2)c(-c2ccccc2Br)c1C(=O)NCc1ccc(-c2ccccc2)cc1`: the IC50 in assay [10] is 26.5 µM (active); in assay [11], 65.9 µM (active).

Turning to `CSC[C@H]1CN(Cc2cccnc2)C(=O)[C@@H]1CC(=O)Nc1ccc(Br)cc1`, the IC50 in assay [12] is 7.58 µM (active); in assay [13] it was 83.3 µM (inactive); in assay [14], 3.02 µM (active).

Take `Cc1ccc(NC(=S)NNC(=O)c2ccc(N3CCOCC3)c([N+](=O)[O-])c2)cc1Cl`: on Beta-galactosidase, the EC50 is > 40 µM (inactive). Besides, the IC50 in [15] is on record as > 40 µM (not active). Also, in assay [16], the half-maximal activity concentration (AC50) was 30.9 µM (active).
